Read-outs that look alike come from different tables or passages of the source.
Target: T1, S. aureus topoisomerase IV (ATPase kit; ParE subunit) (Staphylococcus aureus, UniProt Q5HG65)
T1 construct: purified topoisomerase IV from commercial kit (Inspiralis), C2E2 heterotetramer; with DNA topoisomerase 4 subunit A
Test: PK/LDH-coupled ATPase assay, A340
Type: biochemical
From the text: PK/LDH-coupled ATPase assay, A340 on S. aureus topoisomerase IV (ATPase kit; ParE subunit)

T1 sequence (Q2FYS4 whole entry): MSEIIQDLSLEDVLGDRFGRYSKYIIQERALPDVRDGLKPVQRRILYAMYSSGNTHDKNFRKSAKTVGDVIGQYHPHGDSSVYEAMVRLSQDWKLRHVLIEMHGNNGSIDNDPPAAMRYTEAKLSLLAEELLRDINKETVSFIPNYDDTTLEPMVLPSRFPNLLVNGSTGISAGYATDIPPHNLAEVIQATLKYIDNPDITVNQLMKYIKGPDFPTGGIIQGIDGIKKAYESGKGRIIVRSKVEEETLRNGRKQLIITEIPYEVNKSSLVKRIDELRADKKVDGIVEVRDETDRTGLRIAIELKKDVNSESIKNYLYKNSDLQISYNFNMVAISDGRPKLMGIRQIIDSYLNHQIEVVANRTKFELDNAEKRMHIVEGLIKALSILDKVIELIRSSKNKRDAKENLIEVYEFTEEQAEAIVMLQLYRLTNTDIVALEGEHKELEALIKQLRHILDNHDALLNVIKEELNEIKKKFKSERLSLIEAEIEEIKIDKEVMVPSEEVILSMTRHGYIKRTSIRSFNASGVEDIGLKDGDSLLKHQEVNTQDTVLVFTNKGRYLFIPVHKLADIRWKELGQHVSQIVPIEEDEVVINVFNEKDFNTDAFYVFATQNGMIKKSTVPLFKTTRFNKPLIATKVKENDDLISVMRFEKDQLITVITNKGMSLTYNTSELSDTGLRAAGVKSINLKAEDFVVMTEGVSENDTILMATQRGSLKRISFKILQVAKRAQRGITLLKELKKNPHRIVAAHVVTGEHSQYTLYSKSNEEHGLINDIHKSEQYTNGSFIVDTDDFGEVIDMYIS
T1 sequence (Q5HG65 whole entry): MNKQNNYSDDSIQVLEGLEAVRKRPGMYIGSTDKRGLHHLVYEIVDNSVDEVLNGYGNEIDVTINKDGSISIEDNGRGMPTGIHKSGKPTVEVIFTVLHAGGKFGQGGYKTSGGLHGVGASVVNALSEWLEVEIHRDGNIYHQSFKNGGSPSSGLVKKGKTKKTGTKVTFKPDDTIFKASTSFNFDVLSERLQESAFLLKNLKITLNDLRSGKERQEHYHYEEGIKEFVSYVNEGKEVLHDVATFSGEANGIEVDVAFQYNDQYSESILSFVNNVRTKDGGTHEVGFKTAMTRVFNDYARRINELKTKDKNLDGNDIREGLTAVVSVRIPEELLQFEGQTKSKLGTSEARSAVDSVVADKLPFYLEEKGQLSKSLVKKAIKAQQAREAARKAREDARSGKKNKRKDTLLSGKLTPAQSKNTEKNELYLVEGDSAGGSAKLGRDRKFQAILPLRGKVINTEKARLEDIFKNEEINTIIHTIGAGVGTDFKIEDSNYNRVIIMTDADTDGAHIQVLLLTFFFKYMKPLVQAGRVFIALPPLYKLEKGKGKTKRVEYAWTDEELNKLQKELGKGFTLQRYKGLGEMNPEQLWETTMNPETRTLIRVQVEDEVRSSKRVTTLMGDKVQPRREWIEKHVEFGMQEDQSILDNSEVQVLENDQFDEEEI

With O=C(NNC(=S)Nc1ccc([N+](=O)[O-])cc1)c1cc2ccccc2[nH]1 [compound 4, 1-(indol-2-oyl)-4-(4-nitrophenyl) thiosemicarbazide] as the compound, how does the inhibition at 20 µM (read-out: 4) read?
The inhibition at 20 µM was 55.8 ± 1.59%.

How did the inhibition at 20 µM (read-out: 7) turn out when O=C(NC(=S)NNC(=O)c1cc2ccccc2[nH]1)c1ccccc1 [compound 7, 4-benzoyl-1-(indol-2-oyl) thiosemicarbazide] was run?
Its inhibition at 20 µM is 49.4 ± 2.27%.
